Values of other authors, collected in article PMC7457146 (Epigenomics, 2012).
Several values for one entry are separate records, joined by “and”; a condition that tells them apart may be missing. Equal values may be shown once. Entries after “also recorded” stand apart in the source; their conditions may differ. Read-outs that look alike come from different tables or passages of the source.

How the values were obtained:
[1] = test system: HBL2, Granta519 and Jeko1 MCL cell lines; settings: belinostat 100–1000 nM or romidepsin 1–40 nM
LNCaP cells = settings: read-out: IC50 to induce growth delay
refractory lung cancer = settings: 17.8 mg/m^2 days 1 and 7 of 21-day cycles, 19 patients
[2] = test system: human lymphoma U-937 tumors; settings: SCID mice with U-937 tumors; control median 20 days
multiple myeloma [3] = test system: multiple myeloma
HDAC7 = settings: ref Data supplied by Gloucester Pharmaceuticles Inc. and performed by Epigentek 2007
acute myeloid leukemia [4] = settings: ten AML patients, Phase I
HDAC6 = settings: ref Data supplied by Gloucester Pharmaceuticles Inc. and performed by Epigentek 2007
[5] = test system: Epstein-Barr virus-transformed lymphoblastoid cell tumors
[6] = test system: chronic lymphocytic leukemia
HDAC5 = settings: ref Data supplied by Gloucester Pharmaceuticles Inc. and performed by Epigentek 2007
[7] = 42 patients, Phase II trial
HDAC4 = settings: ref Data supplied by Gloucester Pharmaceuticles Inc. and performed by Epigentek 2007
[8] = test system: malignant rhabdoid tumors; settings: day 12; 1.2, 2.5 and 5 mg/kg on days 0, 4 and 8
[9] = test system: pancreatic and other advanced solid tumors; settings: in combination with gemcitabine
[10] = test system: cutaneous T-cell lymphoma; settings: CTCL
HDAC2 = settings: ref Data supplied by Gloucester Pharmaceuticles Inc. and performed by Epigentek 2007
[11] = nonhuman primates
[12] = not given; remark: listed apart in the source
HDAC1 = settings: ref Data supplied by Gloucester Pharmaceuticles Inc. and performed by Epigentek 2007
HDAC3 = settings: ref Data supplied by Gloucester Pharmaceuticles Inc. and performed by Epigentek 2007
[13] = not given; remark: listed apart in the source
CYP3A4 = settings: CYP450 family CYP3A4 isoform
[14] = test system: Prostate cancer: PC-3 and DU-145; settings: read-out: Mean IC50; Prostate cancer cell lines, 72-h incubation; ref Data supplied by Gloucester Pharmaceuticals
[15] = test system: cutaneous T-cell lymphoma
VEGF mRNA = settings: PC-3 prostate cancer cells, after 12 h
HDAC10 = settings: ref Data supplied by Gloucester Pharmaceuticles Inc. and performed by Epigentek 2007
[16] = test system: cutaneous T-cell lymphoma; remark: listed apart in the source
multiple myeloma [17] = settings: with bortezomib and dexamethasone
HDAC11 = settings: ref Data supplied by Gloucester Pharmaceuticles Inc. and performed by Epigentek 2007
HDAC9 = settings: ref Data supplied by Gloucester Pharmaceuticles Inc. and performed by Epigentek 2007
HDAC8 = settings: ref Data supplied by Gloucester Pharmaceuticles Inc. and performed by Epigentek 2007
acute myeloid leukemia [18] = settings: AML, 13 mg/m^2 iv. over 4 h days 1, 8, 15 of 28-day cycle

Q: For `N[C@@H](Cc1ccc(N(CCCl)CCCl)cc1)C(=O)O` [melphalan], which apoptosis (U266 myeloma cells; melphalan 10 μmol/l (control 28%)) is on record?
A: The apoptosis was 44%.

Q: For `O=C(/C=C/c1cccc(S(=O)(=O)Nc2ccccc2)c1)NO` [belinostat], which “interaction with bortezomib (3–4 nM)” value [1] is on record?
A: Its value is “synergism in all cell lines”.

Q: Which results are given for `C/C=C1\NC(=O)[C@H]2CSSCC/C=C/[C@H](CC(=O)N[C@H](C(C)C)C(=O)N2)OC(=O)[C@H](C(C)C)NC1=O` [Romidepsin]?
A: IC50 (LNCaP cells): ~0.00579 µM; objective responses (refractory lung cancer): no objective responses; patients with disease stabilization (refractory lung cancer): nine; median survival [2]: 30.5 days and 33 days; Responses: SD (multiple myeloma [3]; Phase II, MM, 12 patients): 11 SD; clinical responses (multiple myeloma [3]; single agent 13 mg/m^2, 13 MM patients): no clinical responses were observed; IC50 (HDAC7): 2.47 µM; CR or PR (acute myeloid leukemia [4]): none achieved CR or PR; IC50 (HDAC6): […]; survival at 30 days ([5]; mouse, in vivo): 90%; increased level of active caspase 3 ([5]; romidepsin-mediated apoptosis): 12 fold; Responses ([6]; Phase I, CLL, 10 patients): no formal CR or PR; also recorded: No PR/CR (see text); average reduction in leukocyte counts ([6]; seven CLL patients with high peripheral white cell counts, range: 45–76%): 58%; IC50 (HDAC5): 0.567 µM; increase in MDR1 (MDR1; malignant PBMCs of patients in NIH clinical trials): eightfold; increase in MDR1 (MDR1; normal PBMCs of patients in NIH clinical trials): sixfold; apoptosis (U266 myeloma cells; romidepsin 0.01 μmol/l (control 28%)): 43%; apoptosis (U266 myeloma cells; romidepsin 0.01 μmol/l with melphalan 10 μmol/l): 73%; ECGs with asymptomatic T-wave flattening (grade 1) or ST-segment depression (grade 2) [7]: over 50%; IC50 (HDAC4): 0.466 µM; mean tumor volume [8]: significant reduction; patients with SD lasting >4 cycles [9]: 12; half-life: less than 3 h; terminal half-life (Phase I PK studies, two-compartment model): 2.92 h; complete response (CR) rate ([10]; identical in both studies): 6%; objective response rate ([10]; two studies): 34% and 35%; median response duration ([10]; two studies respectively): […]; IC50 (HDAC2): […]; CNS penetration [11]: […]; maximum tolerated dose (MTD) ([12]; 4-h iv. infusion, day 1 and 5 schedule, Sandor et al.): 17.8 mg/m^2; maximum tolerated dose (MTD) ([12]; day 1, 8 and 15 schedule every 28 days, Marshall et al.): 13.3 mg/m^2; IC50 (HDAC1): 0.111 µM; IC50 (HDAC3): 0.462 µM; aqueous solubility [13]: limited aqueous solubility; patients achieving SD as best response (colorectal cancer): four out of 25; interaction with bortezomib (3–4 nM) [1]: synergism in all cell lines; primary metabolising enzyme (CYP3A4): primarily metabolized by the CYP450 family CYP3A4 isoform; IC50 [14]: 0.00298 µM; median response duration for all patients ([15]; 71 patients advanced CTCL): […]; overall response rate (ORR) ([15]; 71 patients advanced CTCL, 14 mg/m^2 days 1, 8, 15 of 28-day cycle): 34%; Responses: PR ([15]; Phase II, CTCL, 71 patients): 20; Responses: SD ([15]; Phase II, CTCL, 71 patients): 26; maximum tolerated dose (MTD) (HDAC activity; 4-h iv. infusion on days 1, 8 and 15 of a 28-day cycle, pharmacodynamic Phase I study): 13 mg/m^2; HDAC activity (HDAC activity; 24 h after treatment): 59 % of baseline; terminal elimination half-life (HDAC activity; at 13 mg/m^2): 3.67 h; HDAC activity (HDAC activity; immediately after treatment): 24.6 % of baseline; decrease in expression of VEGF mRNA (VEGF mRNA): 51%; IC50 (HDAC10): 1.17 µM; clinically significant pruritus relief ([16]; 28 out of 65 patients with moderate-to-severe pruritus at baseline): 43%; ORR (severity-weighted assessment tool) ([16]; 96 patients CTCL): 34%; median duration of response ([16]; 96 patients CTCL): […]; median time to progression ([16]; 96 patients CTCL): 8 months; median time to response ([16]; 96 patients CTCL): 2 months; Responses: PR ([16]; Phase II, CTCL, 96 patients): 24; Responses: SD ([16]; Phase II, CTCL, 96 patients): 26; median overall survival (multiple myeloma [17]): over 36 months; minimal responses (multiple myeloma [17]; 25 pretreated myeloma patients): three; very good PRs (multiple myeloma [17]; 25 pretreated myeloma patients): seven; median time to progression (multiple myeloma [17]; 95% CI: 5.5–19.6): 7.2 months; IC50 (HDAC11): 0.169 µM; IC50 (HDAC9): 6.58 µM; IC50 (HDAC8): […]; patients with antileukemic activity (acute myeloid leukemia [18]): five out of seven

Q: With `C/C=C1\NC(=O)[C@@H](CS)NC(=O)[C@@H](C(C)C)NC(=O)C[C@@H](/C=C/CCS)OC(=O)[C@H](C(C)C)NC1=O` [Activated romidepsin] as the molecule, how does the IC50 (HDAC7) read?
A: The IC50 was 0.279 µM.

Q: And the IC50 (HDAC6)?
A: The IC50 was 0.0326 µM.

Q: And the IC50 (HDAC5)?
A: The IC50 was 0.0796 µM.

Q: And the IC50 (HDAC4)?
A: The IC50 was 0.0957 µM.

Q: And the IC50 (HDAC3)?
A: Its IC50 is 0.103 µM.

Q: And the IC50 (HDAC10)?
A: Its IC50 is 0.368 µM.

Q: What about the IC50 (HDAC11) of the same molecule?
A: Its IC50 is 0.0641 µM.

Q: What about the IC50 (HDAC9) of the same molecule?
A: Its IC50 is 2.73 µM.

Q: What about the IC50 (HDAC8) of the same molecule?
A: Its IC50 is 0.0343 µM.
